Experimental data taken from patent US7524669B2 (priority 2002, dated 2009).
Where two headings read alike, the source gives them in different places.

Legend:
AQP9 [1] = target: T1, AQP9 (Rattus norvegicus, UniProt P56627); conditions: for effect of AQP9 expression on resistance/sensitivity of strain HD9: HD9 pAQP9, galactose induced, FIG. 3
[2] = tested on: S. cerevisiae strains W303, W303 pYCF1, MG100, MG100 pYCF1; experiment: Metal ion resistance assay (growth in liquid SD medium), Example 1
[3] = tested on: S. cerevisiae strains W303, W303 pYCF1, MG100, MG100 pYCF1; experiment: Arsenite transport (accumulation) assay in intact cells, Example 1; format: cell-based, Saccharomyces cerevisiae; conditions: FIG. 2
[4] = tested on: S. cerevisiae HD9 (fps1Δ acr3Δ ycf1Δ); conditions: HD9 vs MG102 (acr3Δ ycf1Δ), FIG. 3
AQP7 = conditions: HD9 pAQP7
[5] = tested on: S. cerevisiae HD9 (fps1Δ acr3Δ ycf1Δ); format: cell-based, Saccharomyces cerevisiae; conditions: strain HD9 (FPS1 deleted), 5 μM metalloid, FIG. 4
AQP9 [6] = target: T1, AQP9; format: cell-based, Saccharomyces cerevisiae

T1 sequence (P56627 whole entry): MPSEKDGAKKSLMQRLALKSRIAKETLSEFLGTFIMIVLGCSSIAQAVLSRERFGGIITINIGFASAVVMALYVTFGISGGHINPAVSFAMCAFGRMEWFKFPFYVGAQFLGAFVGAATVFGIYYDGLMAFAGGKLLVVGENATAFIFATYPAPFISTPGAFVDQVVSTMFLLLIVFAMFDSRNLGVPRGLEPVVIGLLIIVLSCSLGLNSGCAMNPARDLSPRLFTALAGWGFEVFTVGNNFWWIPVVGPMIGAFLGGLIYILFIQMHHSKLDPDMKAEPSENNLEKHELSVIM

Compound: [Cl][Cd][Cl] [cadmium, cadmium chloride]
- effect of AQP9 expression on resistance/sensitivity of strain HD9 (AQP9 [1]): no effect on sensitivity

Compound: O=[As]O [arsenite, sodium arsenite]
- arsenite sensitivity (growth) ([2]; strain MG100 (ACR3Δ), FIG. 1): extremely arsenic sensitive
- arsenite resistance (growth) ([2]; strain MG100 pYCF1, FIG. 1): restores arsenite resistance
- arsenite resistance (growth) ([2]; strain W303 (wild type ACR3), FIG. 1): resistant to higher concentrations
- arsenite resistance (growth) ([2]; strain W303 pYCF1, Ycf1p expressed on a plasmid, FIG. 1): no effect on resistance
- accumulation of 73As(OH)3 in intact cells ([3]; strain MG100, 1.0 μM arsenite): accumulates more ^73As(III) than the wild type
- accumulation of 73As(OH)3 in intact cells ([3]; strain MG100 pYCF1, 1.0 μM arsenite): accumulate much higher amounts of arsenite
- accumulation of 73As(OH)3 in intact cells ([3]; strain W303, 1.0 μM arsenite): accumulate the least arsenic
- accumulation of 73As(OH)3 in intact cells ([3]; strain W303 pYCF1, 1.0 μM arsenite): increases the amount of radioactive arsenite accumulated
- effect of AQP9 expression on resistance/sensitivity of strain HD9 (AQP9 [1]): reversed
- resistance of strain HD9 compared to strain MG102 (growth) [4]: resistant
- effect of AQP7 on a plasmid on resistance of strain HD9 (AQP7): no effect on resistance
- transport of radioactive metalloid into cells [5]: reduced
- transport of radioactive metalloid into cells (AQP9 [6]; HD9 expressing AQP9, 5 μM metalloid, FIG. 4): accumulated more ^73As(OH)3 than the parental strain MG102

Compound: O.O.O.O=C([O-])[C@H]([O-])[C@@H]([O-])C(=O)[O-].O=C([O-])[C@H]([O-])[C@@H]([O-])C(=O)[O-].[K+].[K+].[Sb+3].[Sb+3] [antimonite, potassium antimonyl tartrate]
- effect of AQP9 expression on resistance/sensitivity of strain HD9 (AQP9 [1]): reversed
- resistance of strain HD9 compared to strain MG102 (growth) [4]: relatively resistant
- effect of AQP7 on a plasmid on resistance of strain HD9 (AQP7): no effect on resistance
- transport of radioactive metalloid into cells [5]: low rates of transport
- transport of radioactive metalloid into cells (AQP9 [6]): facilitates transport

Compound: sodium arsenate
- effect of AQP9 expression on resistance/sensitivity of strain HD9 (AQP9 [1]): no effect on sensitivity

Compound: OCC(O)CO [glycerol]
- effect of glycerol on AQP9-related arsenite sensitivity in growth assays (AQP9 [1]): small reversal of the AQP9-related arsenite sensitivity
- inhibition of 73As(OH)3 uptake by glycerol (AQP9 [6]): reduced the uptake
